Results reported in the NIST ThermoML archive (doi:10.1021/je2003012).
± gives the expanded uncertainty stated by the source.

Assay: relative permittivity at various frequencies (dimensionless); wn = mass fraction of the nth substance listed
Details: Liquid, direct capacitance:P =

`O=C=O` [carbon dioxide] + CCO showed a relative permittivity (322.4 K, 11900 kPa, w2 = 0.1) of 1.94 ± 0.14, a relative permittivity (322.4 K, 12200 kPa, w2 = 0.1) of 1.96 ± 0.14 and a relative permittivity (322.4 K, 13700 kPa, w2 = 0.1) of 2.01 ± 0.14. The relative permittivity (322.4 K, 13900 kPa, w2 = 0.1) was 2.02 ± 0.14, the relative permittivity (322.4 K, 15700 kPa, w2 = 0.1) was 2.06 ± 0.14 and the relative permittivity (322.4 K, 15800 kPa, w2 = 0.1) was 2.07 ± 0.14. It also gave a relative permittivity (322.4 K, 16700 kPa, w2 = 0.1) of 2.09 ± 0.14, a relative permittivity (322.4 K, 17100 kPa, w2 = 0.1) of 2.09 ± 0.14 and a relative permittivity (322.4 K, 17600 kPa, w2 = 0.1) of 2.11 ± 0.14. For the same compound, the relative permittivity (322.4 K, 18600 kPa, w2 = 0.1) was 2.13 ± 0.14, the relative permittivity (322.4 K, 19600 kPa, w2 = 0.1) was 2.14 ± 0.14 and the relative permittivity (322.4 K, 20600 kPa, w2 = 0.1) was 2.16 ± 0.14. The relative permittivity (322.4 K, 21600 kPa, w2 = 0.1) was 2.18 ± 0.14, the relative permittivity (322.4 K, 21700 kPa, w2 = 0.1) was 2.18 ± 0.14 and the relative permittivity (322.4 K, 22600 kPa, w2 = 0.1) was 2.19 ± 0.14. For the same compound, the relative permittivity (322.4 K, 23600 kPa, w2 = 0.1) was 2.21 ± 0.14, the relative permittivity (322.4 K, 24500 kPa, w2 = 0.1) was 2.22 ± 0.14 and the relative permittivity (322.4 K, 25500 kPa, w2 = 0.1) was 2.23 ± 0.14. It also gave a relative permittivity (322.4 K, 26500 kPa, w2 = 0.1) of 2.24 ± 0.14, a relative permittivity (322.4 K, 27500 kPa, w2 = 0.1) of 2.26 ± 0.14 and a relative permittivity (322.4 K, 28400 kPa, w2 = 0.1) of 2.27 ± 0.14. The relative permittivity (322.4 K, 29900 kPa, w2 = 0.1) was 2.28 ± 0.14, the relative permittivity (322.5 K, 10200 kPa, w2 = 0.05) was 1.53 ± 0.14 and the relative permittivity (322.5 K, 12100 kPa, w2 = 0.05) was 1.63 ± 0.14. The relative permittivity (322.5 K, 13100 kPa, w2 = 0.05) was 1.66 ± 0.14, the relative permittivity (322.5 K, 14200 kPa, w2 = 0.05) was 1.7 ± 0.14 and the relative permittivity (322.5 K, 14700 kPa, w2 = 0.05) was 1.7 ± 0.14. For the same compound, the relative permittivity (322.5 K, 16000 kPa, w2 = 0.05) was 1.73 ± 0.14, the relative permittivity (322.5 K, 16100 kPa, w2 = 0.05) was 1.73 ± 0.14 and the relative permittivity (322.5 K, 17200 kPa, w2 = 0.05) was 1.75 ± 0.14. The relative permittivity (322.5 K, 18900 kPa, w2 = 0.05) was 1.78 ± 0.14, the relative permittivity (322.5 K, 19500 kPa, w2 = 0.05) was 1.79 ± 0.14 and the relative permittivity (322.5 K, 20800 kPa, w2 = 0.05) was 1.8 ± 0.14. For the same compound, the relative permittivity (322.5 K, 21800 kPa, w2 = 0.05) was 1.81 ± 0.14, the relative permittivity (322.5 K, 22700 kPa, w2 = 0.05) was 1.82 ± 0.14 and the relative permittivity (322.5 K, 23600 kPa, w2 = 0.05) was 1.83 ± 0.14. It also gave a relative permittivity (322.5 K, 24700 kPa, w2 = 0.05) of 1.84 ± 0.14, a relative permittivity (322.5 K, 25800 kPa, w2 = 0.05) of 1.85 ± 0.14 and a relative permittivity (322.5 K, 26300 kPa, w2 = 0.05) of 1.86 ± 0.14. The relative permittivity (322.5 K, 27900 kPa, w2 = 0.05) was 1.87 ± 0.14, the relative permittivity (322.5 K, 28400 kPa, w2 = 0.05) was 1.87 ± 0.14 and the relative permittivity (322.5 K, 29300 kPa, w2 = 0.05) was 1.88 ± 0.14. The relative permittivity (322.5 K, 29500 kPa, w2 = 0.05) was 1.88 ± 0.14, the relative permittivity (322.5 K, 30300 kPa, w2 = 0.05) was 1.89 ± 0.14 and the relative permittivity (323.3 K, 9900 kPa, w2 = 0.152) was 2.06 ± 0.14. For the same compound, the relative permittivity (323.3 K, 11000 kPa, w2 = 0.152) was 2.13 ± 0.14, the relative permittivity (323.3 K, 12000 kPa, w2 = 0.152) was 2.18 ± 0.14 and the relative permittivity (323.3 K, 12700 kPa, w2 = 0.152) was 2.21 ± 0.14. The relative permittivity (323.3 K, 13600 kPa, w2 = 0.152) was 2.25 ± 0.14, the relative permittivity (323.3 K, 14700 kPa, w2 = 0.152) was 2.28 ± 0.14 and the relative permittivity (323.3 K, 15900 kPa, w2 = 0.152) was 2.31 ± 0.14. It also gave a relative permittivity (323.3 K, 16900 kPa, w2 = 0.152) of 2.34 ± 0.14, a relative permittivity (323.3 K, 17800 kPa, w2 = 0.152) of 2.36 ± 0.14 and a relative permittivity (323.3 K, 18600 kPa, w2 = 0.152) of 2.37 ± 0.14. The relative permittivity (323.3 K, 18700 kPa, w2 = 0.152) was 2.38 ± 0.14, the relative permittivity (323.3 K, 19500 kPa, w2 = 0.152) was 2.4 ± 0.14 and the relative permittivity (323.3 K, 20300 kPa, w2 = 0.152) was 2.41 ± 0.14. For the same compound, the relative permittivity (323.3 K, 21700 kPa, w2 = 0.152) was 2.44 ± 0.14, the relative permittivity (323.3 K, 22800 kPa, w2 = 0.152) was 2.45 ± 0.14 and the relative permittivity (323.3 K, 23100 kPa, w2 = 0.152) was 2.46 ± 0.14. The relative permittivity (323.3 K, 23500 kPa, w2 = 0.152) was 2.47 ± 0.14, the relative permittivity (323.3 K, 24500 kPa, w2 = 0.152) was 2.48 ± 0.14 and the relative permittivity (323.3 K, 25400 kPa, w2 = 0.152) was 2.5 ± 0.14. For the same compound, the relative permittivity (323.3 K, 26500 kPa, w2 = 0.152) was 2.51 ± 0.14, the relative permittivity (323.3 K, 28400 kPa, w2 = 0.152) was 2.54 ± 0.14 and the relative permittivity (323.3 K, 29500 kPa, w2 = 0.152) was 2.56 ± 0.15. For the same compound, the relative permittivity (323.4 K, 9800 kPa, w2 = 0.212) was 2.59 ± 0.14, the relative permittivity (323.4 K, 10600 kPa, w2 = 0.212) was 2.61 ± 0.14 and the relative permittivity (323.4 K, 11500 kPa, w2 = 0.212) was 2.67 ± 0.14. The relative permittivity (323.4 K, 12400 kPa, w2 = 0.212) was 2.71 ± 0.15, the relative permittivity (323.4 K, 13100 kPa, w2 = 0.212) was 2.75 ± 0.14 and the relative permittivity (323.4 K, 14100 kPa, w2 = 0.212) was 2.79 ± 0.14. It also gave a relative permittivity (323.4 K, 15800 kPa, w2 = 0.212) of 2.85 ± 0.14, a relative permittivity (323.4 K, 16600 kPa, w2 = 0.212) of 2.87 ± 0.14 and a relative permittivity (323.4 K, 17800 kPa, w2 = 0.212) of 2.9 ± 0.14. The relative permittivity (323.4 K, 18800 kPa, w2 = 0.212) was 2.93 ± 0.14, the relative permittivity (323.4 K, 19600 kPa, w2 = 0.212) was 2.95 ± 0.14 and the relative permittivity (323.4 K, 19700 kPa, w2 = 0.212) was 2.95 ± 0.14. For the same compound, the relative permittivity (323.4 K, 21100 kPa, w2 = 0.212) was 2.98 ± 0.14, the relative permittivity (323.4 K, 22900 kPa, w2 = 0.212) was 3.03 ± 0.14 and the relative permittivity (323.4 K, 23100 kPa, w2 = 0.212) was 3.03 ± 0.14. The relative permittivity (323.4 K, 23200 kPa, w2 = 0.212) was 3.03 ± 0.14, the relative permittivity (323.4 K, 24700 kPa, w2 = 0.212) was 3.06 ± 0.14 and the relative permittivity (323.4 K, 26000 kPa, w2 = 0.212) was 3.08 ± 0.14. It also gave a relative permittivity (323.4 K, 26700 kPa, w2 = 0.212) of 3.1 ± 0.14, a relative permittivity (323.4 K, 27900 kPa, w2 = 0.212) of 3.12 ± 0.14 and a relative permittivity (323.4 K, 29500 kPa, w2 = 0.212) of 3.14 ± 0.14. For the same compound, the relative permittivity (323.4 K, 30600 kPa, w2 = 0.212) was 3.15 ± 0.14.
